Laboratory results taken from US6797497B1, “Biological process for the production of ortho-aminophenols from nitroaromatic compounds using mutase” (The United States of America as represented by the …, priority 2001, dated 2004).

Target: T1, nitrobenzene nitroreductase (Ectopseudomonas oleovorans, UniProt Q6DLR9)
T1 construct: The fractions containing nitrobenzene nitroreductase activity, which eluted in the linear gradient between 65 to 80 ml, were pooled; made in house; host or cells: Pseudomonas pseudoalcaligenes JS45, the native organism (not recombinant); Crude extract fractionated on Q-Sepharose Fast Flow
T1 sequence (Q6DLR9 2-227): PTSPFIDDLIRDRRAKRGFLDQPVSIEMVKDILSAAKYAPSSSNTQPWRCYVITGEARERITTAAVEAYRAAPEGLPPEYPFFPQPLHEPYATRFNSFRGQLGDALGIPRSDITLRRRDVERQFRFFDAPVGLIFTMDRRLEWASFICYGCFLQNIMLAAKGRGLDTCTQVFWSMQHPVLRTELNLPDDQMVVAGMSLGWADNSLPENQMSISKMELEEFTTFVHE
Experiment: Nitrobenzene nitroreductase activity on nitroarene substrates (NADPH oxidation)
Type: biochemical, Pseudomonas pseudoalcaligenes strain JS45
Details: partially purified enzyme; compound as substrate
Method: The crude extract was loaded on a 100 ml Q-Sepharose Fast Flow column (Pharmacia, XK-26) previously equilibrated with 150 mM KCl in 20 mM phosphate buffer. Proteins were eluted with a step gradient that began with 100 ml buffer containing KCl (150 mM) and then a linear gradient of 150 to 300 mM KCl at a flow rate of 2.5 ml/min.
A high performance liquid chromatograph (HPLC) equipped with a diode array detector monitoring A210 (Hewlett-Packard, Model 1040M, Wilmington Del.) was used to identify and quantitate the nitroarenes, intermediates and corresponding aminophenols. […] For the whole cell transformation experiments, the nitroarenes and products were separated on an ABZ column (Supelco, Bellefonte, Pa.) using acetonitrile/water as solvent system. Capillary gas chromatography/mass spectral (GC/MS) analyses were performed splitless on a Hewlett-Packard GC (model 5890) equipped with a mass selective detector (model 5971) and a DB-5 column (J & W Scientific, Folsom, Calif., 30 m long×0.25 mm I.D.×1.0 μm film thickness). The aminophenol derivatized with BSTFA was analyzed by GC/MS using the temperature program beginning at 100° C. and increased 10° C./min to 280° C. The n-butylboronic acid derivative was analyzed using an initial temperature of 50° C. increasing 20° C./min to 340°C.

O=[N+]([O-])c1ccccc1 [nitrobenzene]
rate of transformation by partially purified nitrobenzene nitroreductase: 7.9 μmol/min/mg protein

O=[N+]([O-])c1ccc(Oc2ccccc2)cc1 [4-nitrobiphenyl ether]
rate of transformation by partially purified nitrobenzene nitroreductase: 8.1 μmol/min/mg protein
